Activity calls are given as the source filed them. No cut-off for these calls is given here.
Columns and labels:
Mus musculus [1] = species: Mus musculus; assay: Evaluated for analgesic activity in mice using Nilsen test; assay type: functional
Mus musculus [2] = species: Mus musculus; assay: Evaluated for analgesic activity in mice using hot plate method; assay type: functional
Opioid receptor = Opioid receptor (Rattus norvegicus, UniProt P33533+P34975+P33535); assay: Tested for Opioid receptors affinity determined by the capacity to displace bound, radiolabeled dihydromorphine from rat brain homogenates.
Mus musculus [3] = species: Mus musculus; assay: Evaluated for analgesic activity in mice using writhing test; assay type: functional
Monkey [4] = assay: Evaluated for activity in inverted screen assay; assay type: functional; conditions: Cercopithecidae
Monkey [5] = assay: Evaluated for depressant effects in photocell activity cages at 10 mg/kg; IA is Inactive.; assay type: functional, organism-based; design: dose 10 mg/kg; conditions: Cercopithecidae
Monkey [6] = assay: Evaluated for depressant effects in photocell activity cages at 60 mg/kg; IA is Inactive.; assay type: functional, organism-based; design: dose 60 mg/kg; conditions: Cercopithecidae
Monkey [7] = assay: Evaluated for single dose suppression tests in monkeys at 10 mg/kg; Not Effective (activity in relation to morphine); assay type: functional, organism-based; design: dose 10 mg/kg; conditions: Cercopithecidae
Monkey [8] = assay: Evaluated for single dose suppression tests in monkeys at 2 mg/kg; Not Effective (activity in relation to morphine); assay type: functional, organism-based; design: dose 2 mg/kg; conditions: Cercopithecidae
Monkey [9] = assay: Evaluated for single dose suppression tests in monkeys at 5 mg/kg; Not Effective (activity in relation to morphine); assay type: functional, organism-based; design: dose 5 mg/kg; conditions: Cercopithecidae
[10] = Lethal dose in monkeys; assay type: toxicity, organism-based; conditions: cercopithecidae, in vivo
Mus musculus [11] = species: Mus musculus; assay: Evaluated for activity in Nilsen test

| Structure (SMILES) | ED50 (Mus musculus [1]) [mg/kg] | ED50 (Mus musculus [2]) [mg/kg] | Ki (Opioid receptor) [µM] | other results |
| --- | --- | --- | --- | --- |
| CCC1OC(C)(C)c2ccc(O)cc2C12CCN(C)CC2 (configuration not stated) | > 30 | > 30 | 10 |  |
| CCC(=O)C1(c2cccc(O)c2)CCN(C)CC1 [KETOBEMIDONE] |  | 0.8 |  |  |
| CCCCCN1CCC2(CC1)c1cc(O)ccc1C(C)(C)OC2CC (configuration not stated) | > 30 | > 30 | 2 | ED50 (Mus musculus [3]): 4.2 mg/kg; ED50 (Monkey [4]): 38 mg/kg; ED50 (Monkey [5]): inactive; ED50 (Monkey [6]): inactive; Activity (Monkey [7]): inactive; Activity (Monkey [8]): inactive; Activity (Monkey [9]): inactive; LD50 [10]: 80 mg/kg |
| CN1CC[C@]23c4c5ccc(O)c4O[C@H]2[C@@H](O)C=C[C@H]3[C@H]1C5 [MORPHINE] |  |  |  | ED50 (Mus musculus [11]): 0.8 mg/kg |
| CCCCCN1CCC2(CC1)c1cc(O)ccc1C(C)(CC)OC2CC (configuration not stated) | > 30 | > 30 | 5 |  |
| C=CCN1CCC2(CC1)c1cc(O)ccc1C(C)(C)OC2CC (configuration not stated) | > 30 | > 30 | 5 |  |

— ChEMBL document CHEMBL1121460, “Some spiro analogues of the potent analgesic ketobemidone” (J Med Chem, 1980)
